Experimental data taken from ChEMBL document CHEMBL3885881, “DrugMatrix”.

Species on record: Rattus norvegicus
Experiment: DrugMatrix - Regimen: Daily Repeat
Format: toxicity, organism-based, Sprague-Dawley
Set-up: regimen Daily Repeat, gender Male, age 6-8 weeks
Settings: in vivo, po, route oral GAVAGE, […]; for ABSOLUTE BASOPHIL / BASOPHIL / ABSOLUTE EOSINOPHIL / ABSOLUTE LYMPHOCYTE / ABSOLUTE MONOCYTE / ABSOLUTE SEGMENTED NEUTROPHIL / EOSINOPHIL / ERYTHROCYTE COUNT / HEMATOCRIT / HEMOGLOBIN / LEUKOCYTE COUNT / LYMPHOCYTE / MEAN CORPUSCULAR HEMOGLOBIN / MEAN CORPUSCULAR HEMOGLOBIN CONCENTRATION / MEAN CORPUSCULAR VOLUME / MONOCYTE / NEUTROPHIL / NUCLEATED RED BLOOD CELLS / PLATELET COUNT: tissue Blood; for ALANINE AMINOTRANSFERASE / ALBUMIN / ALKALINE PHOSPHATASE / ASPARTATE AMINOTRANSFERASE / BLOOD UREA NITROGEN / CARBON DIOXIDE / CHLORIDE / CHOLESTEROL / CREATINE PHOSPHOKINASE / CREATININE / GLUCOSE / LACTATE DEHYDROGENASE / LIPASE / PHOSPHORUS / SODIUM / TOTAL BILIRUBIN / TOTAL PROTEIN / URIC ACID: tissue Plasma
[1] = 0 mg/kg, 72 h, dose level Control, time 3 day
[2] = 0 mg/kg, 120 h, dose level Control, time 5 day
[3] = 12 mg/kg, 72 h, dose level Low, time 3 day
[4] = 12 mg/kg, 120 h, dose level Low, time 5 day
[5] = 24 mg/kg, 72 h, dose level M1, time 3 day
[6] = 24 mg/kg, 120 h, dose level M1, time 5 day
[7] = 47 mg/kg, 72 h, dose level High, time 3 day
[8] = 47 mg/kg, 120 h, dose level High, time 5 day

## Nc1nc2nc[nH]c2c(=S)[nH]1 [THIOGUANINE]
[1]
  ABSOLUTE BASOPHIL: 0 CELLS/uL
  BASOPHIL: 0%
[2]
  ABSOLUTE BASOPHIL: 0 CELLS/uL
  BASOPHIL: 0%
[3]
  ABSOLUTE BASOPHIL: 0 CELLS/uL
  ABSOLUTE EOSINOPHIL: 0 CELLS/uL
  ABSOLUTE LYMPHOCYTE: 1995.33 CELLS/uL
  ABSOLUTE MONOCYTE: 24.33 CELLS/uL
  ABSOLUTE SEGMENTED NEUTROPHIL: 1147 CELLS/uL
  BASOPHIL: 0%
  EOSINOPHIL: 0%
  ERYTHROCYTE COUNT: 5.75 x10E6/uL
  HEMATOCRIT: 36.93%
  HEMOGLOBIN: 14.27 G/DL
  LEUKOCYTE COUNT: 3.17 x10E3/uL
  LYMPHOCYTE: 50.67%
  MEAN CORPUSCULAR HEMOGLOBIN: 24.87 pg
  MEAN CORPUSCULAR HEMOGLOBIN CONCENTRATION: 38.6 G/DL
  MEAN CORPUSCULAR VOLUME: 64.37 fL
  MONOCYTE: 0.67%
  NEUTROPHIL: 48.67%
  NUCLEATED RED BLOOD CELLS: 0 /100WBC
  PLATELET COUNT: 1202 x10E3/uL
  ALANINE AMINOTRANSFERASE: 56.33 u/L
  ALBUMIN: 4.67 G/DL
  ALKALINE PHOSPHATASE: 631.67 u/L
  ASPARTATE AMINOTRANSFERASE: 116 u/L
  BLOOD UREA NITROGEN: 14.67 mg/dL
  CARBON DIOXIDE: 23 mmol/L
  CHLORIDE: 98.67 MEQ/L
  CHOLESTEROL: 58 mg/dL
  CREATINE PHOSPHOKINASE: 539.33 u/L
  CREATININE: 0.12 mg/dL
  GLUCOSE: 318 mg/dL
  LACTATE DEHYDROGENASE: 172 u/L
  LIPASE: 11.33 u/L
  PHOSPHORUS: 9.8 mg/dL
  SODIUM: 141.63 MEQ/L
  TOTAL BILIRUBIN: 0.17 mg/dL
  TOTAL PROTEIN: 6.73 G/DL
  URIC ACID: 1.43 mg/dL
[4]
  ABSOLUTE BASOPHIL: 0 CELLS/uL
  ABSOLUTE EOSINOPHIL: 52 CELLS/uL
  ABSOLUTE LYMPHOCYTE: 778 CELLS/uL
  ABSOLUTE MONOCYTE: 212 CELLS/uL
  ABSOLUTE SEGMENTED NEUTROPHIL: 8758 CELLS/uL
  BASOPHIL: 0%
  EOSINOPHIL: 0.67%
  ERYTHROCYTE COUNT: 4.29 x10E6/uL
  HEMATOCRIT: 27.5%
  HEMOGLOBIN: 11 G/DL
  LEUKOCYTE COUNT: 9.8 x10E3/uL
  LYMPHOCYTE: 8.33%
  MEAN CORPUSCULAR HEMOGLOBIN: 25.97 pg
  MEAN CORPUSCULAR HEMOGLOBIN CONCENTRATION: 40.5 G/DL
  MEAN CORPUSCULAR VOLUME: 64.23 fL
  MONOCYTE: 2%
  NEUTROPHIL: 89%
  NUCLEATED RED BLOOD CELLS: 0 /100WBC
  PLATELET COUNT: 1171.33 x10E3/uL
  ALANINE AMINOTRANSFERASE: 335.67 u/L
  ALBUMIN: 4.13 G/DL
  ALKALINE PHOSPHATASE: 261.67 u/L
  ASPARTATE AMINOTRANSFERASE: 551.67 u/L
  BLOOD UREA NITROGEN: 16.67 mg/dL
  CARBON DIOXIDE: 17.67 mmol/L
  CHLORIDE: 101 MEQ/L
  CHOLESTEROL: 60.33 mg/dL
  CREATINE PHOSPHOKINASE: 1296 u/L
  CREATININE: 0.11 mg/dL
  GLUCOSE: 204.67 mg/dL
  LACTATE DEHYDROGENASE: 625 u/L
  LIPASE: 9.67 u/L
  PHOSPHORUS: 13.37 mg/dL
  SODIUM: 141.53 MEQ/L
  TOTAL BILIRUBIN: 0.23 mg/dL
  TOTAL PROTEIN: 6.1 G/DL
  URIC ACID: 2.83 mg/dL
[5]
  ABSOLUTE BASOPHIL: 0 CELLS/uL
  ABSOLUTE EOSINOPHIL: 0 CELLS/uL
  ABSOLUTE MONOCYTE: 0 CELLS/uL
  BASOPHIL: 0%
  EOSINOPHIL: 0%
  MONOCYTE: 0%
[6]
  ABSOLUTE BASOPHIL: 0 CELLS/uL
  ABSOLUTE EOSINOPHIL: 46.33 CELLS/uL
  ABSOLUTE LYMPHOCYTE: 7006.33 CELLS/uL
  ABSOLUTE MONOCYTE: 30 CELLS/uL
  ABSOLUTE SEGMENTED NEUTROPHIL: 550.67 CELLS/uL
  BASOPHIL: 0%
  EOSINOPHIL: 0.67%
  ERYTHROCYTE COUNT: 5.49 x10E6/uL
  HEMATOCRIT: 33.33%
  HEMOGLOBIN: 13.27 G/DL
  LEUKOCYTE COUNT: 7.63 x10E3/uL
  LYMPHOCYTE: 91.67%
  MEAN CORPUSCULAR HEMOGLOBIN: 24.17 pg
  MEAN CORPUSCULAR HEMOGLOBIN CONCENTRATION: 39.8 G/DL
  MEAN CORPUSCULAR VOLUME: 60.83 fL
  MONOCYTE: 0.33%
  NEUTROPHIL: 7.33%
  NUCLEATED RED BLOOD CELLS: 0 /100WBC
  PLATELET COUNT: 1721.33 x10E3/uL
  ALANINE AMINOTRANSFERASE: 38.67 u/L
  ALBUMIN: 4.13 G/DL
  ALKALINE PHOSPHATASE: 266.67 u/L
  ASPARTATE AMINOTRANSFERASE: 89.33 u/L
  BLOOD UREA NITROGEN: 11 mg/dL
  CARBON DIOXIDE: 25 mmol/L
  CHLORIDE: 104.67 MEQ/L
  CHOLESTEROL: 66 mg/dL
  CREATINE PHOSPHOKINASE: 417.33 u/L
  CREATININE: 0.23 mg/dL
  GLUCOSE: 127.67 mg/dL
  LACTATE DEHYDROGENASE: 349 u/L
  LIPASE: 9.67 u/L
  PHOSPHORUS: 10.33 mg/dL
  SODIUM: 151.33 MEQ/L
  TOTAL BILIRUBIN: 0.33 mg/dL
  TOTAL PROTEIN: 5.97 G/DL
  URIC ACID: 1.17 mg/dL
[7]
  ABSOLUTE BASOPHIL: 0 CELLS/uL
  ABSOLUTE EOSINOPHIL: 53.33 CELLS/uL
  ABSOLUTE LYMPHOCYTE: 4257 CELLS/uL
  ABSOLUTE MONOCYTE: 26.67 CELLS/uL
  ABSOLUTE SEGMENTED NEUTROPHIL: 4229.67 CELLS/uL
  BASOPHIL: 0%
  EOSINOPHIL: 0.67%
  ERYTHROCYTE COUNT: 7.05 x10E6/uL
  HEMATOCRIT: 43.87%
  HEMOGLOBIN: 17.33 G/DL
  LEUKOCYTE COUNT: 8.57 x10E3/uL
  LYMPHOCYTE: 50%
  MEAN CORPUSCULAR HEMOGLOBIN: 24.57 pg
  MEAN CORPUSCULAR HEMOGLOBIN CONCENTRATION: 39.5 G/DL
  MEAN CORPUSCULAR VOLUME: 62.23 fL
  MONOCYTE: 0.33%
  NEUTROPHIL: 49%
  NUCLEATED RED BLOOD CELLS: 0 /100WBC
  PLATELET COUNT: 1024.33 x10E3/uL
  ALANINE AMINOTRANSFERASE: 35.67 u/L
  ALBUMIN: 3.03 G/DL
  ALKALINE PHOSPHATASE: 125 u/L
  ASPARTATE AMINOTRANSFERASE: 152.67 u/L
  BLOOD UREA NITROGEN: 21 mg/dL
  CARBON DIOXIDE: 16 mmol/L
  CHLORIDE: 97 MEQ/L
  CHOLESTEROL: 46.67 mg/dL
  CREATINE PHOSPHOKINASE: 4333 u/L
  CREATININE: 0.17 mg/dL
  GLUCOSE: 263.33 mg/dL
  LACTATE DEHYDROGENASE: 399 u/L
  LIPASE: 23.33 u/L
  PHOSPHORUS: 14.77 mg/dL
  SODIUM: 139.73 MEQ/L
  TOTAL BILIRUBIN: 0.17 mg/dL
  TOTAL PROTEIN: 4.33 G/DL
  URIC ACID: 3.1 mg/dL
[8]
  ABSOLUTE BASOPHIL: 0 CELLS/uL
  ABSOLUTE EOSINOPHIL: 0 CELLS/uL
  ABSOLUTE LYMPHOCYTE: 1200 CELLS/uL
  ABSOLUTE MONOCYTE: 72 CELLS/uL
  ABSOLUTE SEGMENTED NEUTROPHIL: 1128 CELLS/uL
  BASOPHIL: 0%
  EOSINOPHIL: 0%
  ERYTHROCYTE COUNT: 6.48 x10E6/uL
  HEMATOCRIT: 41.1%
  HEMOGLOBIN: 15.9 G/DL
  LEUKOCYTE COUNT: 2.4 x10E3/uL
  LYMPHOCYTE: 50%
  MEAN CORPUSCULAR HEMOGLOBIN: 24.5 pg
  MEAN CORPUSCULAR HEMOGLOBIN CONCENTRATION: 38.7 G/DL
  MEAN CORPUSCULAR VOLUME: 63.5 fL
  MONOCYTE: 3%
  NEUTROPHIL: 47%
  NUCLEATED RED BLOOD CELLS: 0 /100WBC
  PLATELET COUNT: 877 x10E3/uL
  ALANINE AMINOTRANSFERASE: 127 u/L
  ALBUMIN: 3.5 G/DL
  ALKALINE PHOSPHATASE: 205 u/L
  ASPARTATE AMINOTRANSFERASE: 290 u/L
  BLOOD UREA NITROGEN: 35 mg/dL
  CARBON DIOXIDE: 25 mmol/L
  CHLORIDE: 100 MEQ/L
  CHOLESTEROL: 56 mg/dL
  CREATINE PHOSPHOKINASE: 284 u/L
  CREATININE: 0.1 mg/dL
  GLUCOSE: 211 mg/dL
  LACTATE DEHYDROGENASE: 156 u/L
  LIPASE: 6 u/L
  PHOSPHORUS: 9.3 mg/dL
  SODIUM: 141.5 MEQ/L
  TOTAL BILIRUBIN: 0.2 mg/dL
  TOTAL PROTEIN: 6.1 G/DL
  URIC ACID: 1.5 mg/dL
